We go through seven compounds from article PMC6287471 (International Journal for Parasitology: Drugs and Drug …, 2018).

Structures can show the parent of a compound that is named as a salt.

Experiment [1] concerns the target T1, Hco-ACC-2 WT channel (Haemonchus contortus, UniProt A0A219KWM7).
T1 sequence (A0A219KWM7 18-443): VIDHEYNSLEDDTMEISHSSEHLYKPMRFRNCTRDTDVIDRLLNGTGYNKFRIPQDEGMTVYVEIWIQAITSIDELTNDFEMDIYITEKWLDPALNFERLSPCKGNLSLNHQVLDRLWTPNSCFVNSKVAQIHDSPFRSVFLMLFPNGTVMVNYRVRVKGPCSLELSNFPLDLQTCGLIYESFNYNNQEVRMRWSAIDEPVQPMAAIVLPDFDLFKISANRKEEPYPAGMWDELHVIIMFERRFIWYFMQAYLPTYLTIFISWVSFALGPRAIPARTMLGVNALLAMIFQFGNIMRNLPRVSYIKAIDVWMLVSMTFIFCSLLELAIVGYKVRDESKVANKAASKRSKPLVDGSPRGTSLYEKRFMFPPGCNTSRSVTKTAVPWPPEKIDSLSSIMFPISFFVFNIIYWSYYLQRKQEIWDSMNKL
The settings on record: wild-type channel; partial = maximum response lower than 100% of ACh.

Experiment [2] has as its target T1, Hco-ACC-2 WT channel. The experiment can be described thus: cell-based. The settings on record: EC50 ± standard error, n ≥ 5 oocytes.

`CC(=O)OCC[N+](C)(C)C` [Acetylcholine]: the “full or partial agonist” value in experiment [1] is listed as “full agonists”. The EC50 is the midpoint of the concentration-response curve. With `C[N+](C)(C)CCOC(N)=O` [Carbachol, Carbamoylcholine Chloride], the EC50 in experiment [2] worked out at 43 ± 4 µM. Moreover, the “full or partial agonist” value in experiment [1] was “partial agonists”. The compound `C[N+](C)(C)CCO` [Choline, Choline Chloride] came in with an EC50 in experiment [2] of 1280 ± 35 µM.

On to `c1ccc([C@H]2CN3CCSC3=N2)cc1` [Levamisole, Levamisole Hydrochloride], for which the EC50 in experiment [2] is 98 ± 4 µM. For the same compound, the “full or partial agonist” value in experiment [1] is “partial agonists”.

`CC(=O)OC(C)C[N+](C)(C)C` (stereo not drawn) [Methacholine, Acetyl-β-methylcholine Chloride] registered an EC50 in experiment [2] of 100 ± 2 µM. The “full or partial agonist” value in experiment [1] was “full agonists”. In the same order, the values of `CN1CCCN=C1/C=C/c1cccs1` [Pyrantel, Pyrantel Citrate Salt] are 72 ± 4 µM and “partial agonists”. With `CC(C[N+](C)(C)C)OC(N)=O` (stereo not drawn) [Urecholine, Carbamyl-β-methylcholine chloride], the concentration giving a half-maximal response (EC50) in experiment [2] was determined as 747 ± 22 µM. In experiment [1], the “full or partial agonist” value is recorded as “partial agonists”.
